Data: US20040024033A1 (priority 1998, published 2004)

Key:
[1] = tested on: HCT-15 (Colon); test: Antiproliferative assay, HCT-15; format: cell-based; details: Homo sapiens, 120 h, 5 d exposure, mean ± SD, n = 3, read-out: IC50-values for growth inhibition
From the text: Human colorectal adenocarcinoma cell line HCT-15 (ATCC CCL 225) is from the American Type Culture Collection (Rockville, Md., USA), and the cells are cultivated in vitro as recommended by the supplier. HCT-15 is an epithelial-like cell line (Cancer Res. 39: 1020-25 [1979]) that is multi-drug resistant by virtue of over-expression of P-glycoprotein (P-gp, gp170, MDR-1; Anticancer Res. 11: 1309-12 [1991]; J. Biol. Chem. 264: 18031-40 [1989]; Int. J. Cancer 1991; 49: 696-703 [1991]) and glutathione-dependent resistance mechanisms (Int. J. Cancer 1991; 49: 688-95.[1991]).
Antiproliferative assays are performed as previously described (Int. J. Cancer 43, 851-6 (1989)). Briefly, cells are seeded at 1.5×10^3 cells/well into 96-well microtiter plates and incubated overnight. Compounds are added in serial dilutions on day 1. The plates are then incubated for an additional 2 to 5 days, allowing for at least one cell doubling (cell line dependent), after which the cells are fixed with 3.3% v/v glutaraldehyde, washed with water and stained with 0.05% w/v methylene blue. After washing, the dye is eluted with 3% V/V HCl and the optical density measured at 665 nm with a SpectraMax 340 (Bucherer, Basel, Switzerland). IC50 values are determined by a computerized system (SoftPro, Bucherer, Basel, Switzerland) using the formula (OD test−OD start)/(OD control−OD start)×100. […]

[2] = tested on: ZR-75-1 (Breast); test: Antiproliferative assay, ZR-75-1; format: cell-based; details: Homo sapiens, 120 h, 5 d exposure, mean ± SD, n = 3, read-out: IC50-values for growth inhibition
Procedure: Antiproliferative assays are performed as previously described (Int. J. Cancer 43, 851-6 (1989)). Briefly, cells are seeded at 1.5×10^3 cells/well into 96-well microtiter plates and incubated overnight. Compounds are added in serial dilutions on day 1. The plates are then incubated for an additional 2 to 5 days, allowing for at least one cell doubling (cell line dependent), after which the cells are fixed with 3.3% v/v glutaraldehyde, washed with water and stained with 0.05% w/v methylene blue. After washing, the dye is eluted with 3% V/V HCl and the optical density measured at 665 nm with a SpectraMax 340 (Bucherer, Basel, Switzerland). IC50 values are determined by a computerized system (SoftPro, Bucherer, Basel, Switzerland) using the formula (OD test−OD start)/(OD control−OD start)×100. IC50 is defined as the drug concentration which leads to 50% of cells per well compared to control cultures (100%) at the end of incubation period.

[3] = tested on: PC-3M (Prostate); test: Antiproliferative assay, PC-3M; format: cell-based; details: Homo sapiens, 72 h, 3 d exposure, mean ± SD, read-out: IC50-values for growth inhibition
Procedure: A human androgen-independent prostate cancer cell line is used to establish subcutaneous and orthotopic models in mice. The human metastatic prostate carcinoma PC-3M is obtained from Dr. I. J. Fidler (MD Anderson Cancer Center, Houston, Tex., USA) and is cultured in Ham's F12K media supplemented with 7% v/v FBS. The PC-3M cell line is the result of isolation from liver metastasis produced in nude mice subsequent to intrasplenic injection of PC-3 cells [ATCC CRL 1435; American Type Culture Collection (Rockville, Md., USA)], and they can grow in Eagle's MEM supplemented with 10% fetal bovine serum, sodium pyruvate, non-essential amino acids, L-glutamine, a two-fold vitamin solution (Gibco Laboratories, Long Island, N.Y.) and penicillin-streptomycin (Flow Laboratories, Rockville, Md.). The PC-3M cell line is hormone-insensitive (that is, it grows in the absence of androgens). […] No normal Y chromosomes can be detected by Q-band analysis.
(§1) Antiproliferative assays are performed as previously described (Int. J. Cancer 43, 851-6 (1989)). […] After washing, the dye is eluted with 3% V/V HCl and the optical density measured at 665 nm with a SpectraMax 340 (Bucherer, Basel, Switzerland). IC50 values are determined by a computerized system (SoftPro, Bucherer, Basel, Switzerland) using the formula (OD test−OD start)/(OD control−OD start)×100. […]

[4] = tested on: KB-8511 (Epidermoid, MDR); test: Antiproliferative assay, KB-8511; format: cell-based; details: Homo sapiens, 48 h, 2 d exposure, mean ± SD, read-out: IC50-values for growth inhibition
Procedure: The human epidermal (mouth) carcinoma cell line KB-8511 (a P-gp over-expressing cell line derived from the epidermoid (mouth) KB-31 carcinoma cell line) is obtained from Dr. R. M. Baker, Roswell Park Memorial Institute (Buffalo, N.Y., USA) (for description see Akiyama et al., Somat. Cell. Mol. Genetics 11, 117-126 (1985) and Fojo A., et al., Cancer Res. 45, 3002-3007 (1985)) and is cultured as previously described (Meyer, T., et al., Int. J. Cancer 43, 851-856 (1989)): KB-8511 cells, like KB-31, are derived from the KB cell line (ATCC) and they are human epidermal carcinoma cells; KB-31 cells can be grown in mono-layer using Dulbecco's modified Eagle's medium (D-MEM) with 10% fetal calf serum (M.A. Bioproducts), L-glutamine (Flow), penicillin (50 units/ml) and streptomycin (50 μg/ml (Flow); they then grow with a doubling time of 22 h, and their relative plating efficiency is approximately 60%.
as §1

[5] = tested on: human COLO 205 colon tumors; format: in vivo, female BALB/c nude mice; details: 75 mg/kg, i.v. every 7 days; day 32
Procedure: (§2) Female or male BALB/c nu/nu (nude) mice are kept under sterile conditions (10 to 12 mice per Type III cage) with free access to food and water. Mice weigh between 20 and 25 grams at the time of tumor implantation. Tumors are established by subcutaneous injection of cells (minimum 2×10^6 cells in 100 μl PBS or medium) in carrier mice (4-8 mice per cell line). The resulting tumors are serially passaged for a minimum of three consecutive transplantations prior to start of treatment. Tumor fragments (approx. 25 mg) are implanted s.c. into the left flank of animals with a 13-gauge trocar needle while the mice are exposed to Forene (Abbott, Switzerland) anesthesia.
(§3) Tumor growth and body weights are monitored once or twice weekly. All treatments are administered intravenously (i.v.) and are initiated when a mean tumor volume of approximately 100 to 250 mm^3 is attained, depending upon the tumor type. Tumor volumes are determined using the formula […] (see Cancer Chemother. Pharmacol. 24:148-154, [1989]). Treatments with epothilone B vary the dose and the frequency of administration. Comparator agents are administered according to previously determined optimal treatment regimens. In addition to presenting changes in tumor volumes over the course of treatment, antitumor activity is expressed as T/C% (mean increase of tumor volumes of treated animals divided by the mean increase of tumor volumes of control animals multiplied by 100). Tumor regression (%) represents the smallest mean tumor volume compared to the mean tumor volume at the start of treatment, according to the formula Regression (%)=(1−Vend/Vstart)×100 (Vend=final mean tumor volume, Vstart=mean tumor volume at the start of treatment. Any animals in which the tumor has reached a size exceeding approximately 1.5 to 2.5 cm^3 are sacrificed. Details can be found below.
Tumor fragments of approximately 25 mg are implanted into the left flank of each female nude mouse (n=7 per group); a subcutaneous estrogen pellet is placed on the opposite flank. Treatments are started on day 14 after tumor transplantation. epothilone B is administered at 4 mg/kg, i.v., either once or once per week (days 14, 21, 28) or every second week (days 14 and 28). 5-fluorouracil is administered i.v. at 75 mg/kg on days 14, 21, 28. Data presented are from animals surviving to day 32, four days after the last treatments. Antitumor activity is expressed as T/C% (mean increase of tumor volumes of treated animals divided by the mean increase of tumor volumes of control animals multiplied by 100). Tumor regression (%) represents the final mean tumor volume compared to the mean tumor volume at the start of treatment. Changes (A) in tumor volumes represent the tumor volume on the last treatment day minus the tumor volume on the first treatment day.

[6] = tested on: human HCT-15 colon carcinoma; format: in vivo, female BALB/c nude mice
Procedure: as §2, §3
Tumor fragments of approximately 25 mg are implanted into the left flank of each female nude mouse (n=8 per group). Treatments are started on day 14 after tumor transplantation. Epothilone B is administered once at 4 mg/kg, i.v. on day 14.5-Fluorouracil is administered at 75 mg/kg, i.v., on days 14 and 21. TAXOL® is administered i.v. at 20 mg/kg/day, every second day for 5 treatments (days 14, 16, 18, 20 and 22). Antitumor activity is expressed as T/C% (mean increase of tumor volumes of treated animals divided by the mean increase of tumor volumes of control animals multiplied by 100). Tumor regression (%) represents the final mean tumor volume compares to the mean tumor volume at the start of treatment. Δ Tumor volumes represent the tumor volume on the last treatment day minus the tumor volume on the first treatment day. Statistical analyses on Δ tumor volumes uses Dunnett's test to compare treatment groups to controls. Statistical analyses on body weight changes uses paired t-tests comparing body weights before treatment to those at the end of treatment; mice weigh ˜20-25 g at the start of treatment. Not significant is indicated by the abbreviation ,ns”. Data presented are means±SEM from animals surviving to the end of the experiment.

| Structure (SMILES) | IC50 [1] | IC50 [2] | IC50 [3] | IC50 [4] | T/C [5] | % Body Weight Change ([6]; 75 mg/kg, i.v., on days 14 and 21) | D Body Weight ([6]; 75 mg/kg, i.v., on days 14 and 21, mean ± SEM) | Mortalities (deaths) ([6]; two 75 mg/kg administrations) |
| --- | --- | --- | --- | --- | --- | --- | --- | --- |
| CC(=O)O[C@H]1C(=O)[C@@]2(C)[C@H]([C@H](OC(=O)c3ccccc3)[C@]3(O)C[C@H](OC(=O)[C@H](O)[C@@H](NC(=O)c4ccccc4)c4ccccc4)C(C)=C1C3(C)C)[C@]1(OC(C)=O)CO[C@@H]1C[C@@H]2O [paclitaxel] | 106 ± 54 nM | 3.6 ± 1.87 nM | 6.74 nM | 994 nM | – | – | – | – |
| O=c1[nH]cc(F)c(=O)[nH]1 [5-fluorouracil, reference compound] | – | – | – | – | 18% | 9 ± 4% | 2.0 ± 0.7 g | 50% |
